Data reported in US20220024945A1, “THERAPEUTIC COMPOUNDS AND COMPOSITIONS, AND METHODS OF USE THEREOF” (Genentech, Inc., priority 2017, published 2022).
Where two headings read alike, the source gives them in different places.

Experiments:
[1] = biological target: isolated recombinant JAK1 kinase domain (Homo sapiens, UniProt P23458); test: JAK enzyme assay (Caliper LabChip), JAK1 kinase domain; type: biochemical; conditions: ATP 25 μM; 1.5 nM JAK1; Morrison tight binding model
[2] = test system: JAK1-dependent STAT6 phosphorylation downstream of IL-13 stimulation, BEAS-2B cells; test: JAK1 pathway assay in cell lines: P-STAT6 in BEAS-2B cells + IL13; type: cell-based; conditions: BEAS-2B human bronchial epithelial cells, 1 hr compound preincubation, read-out: P-STAT6 BEAS2B + IL13 IC50
Method: JAK1 Pathway Assay in Cell Lines was Carried Out as Follows:
Inhibitor potency (EC50) was determined in cell-based assays designed to measure JAK1 dependent STAT phosphorylation. As noted above, inhibition of IL-4, IL-13, and IL-9 signaling by blocking the Jak/Stat signaling pathway can alleviate asthmatic symptoms in pre-clinical lung inflammation models (Mathew et al., 2001, J Exp Med 193(9): 1087-1096; Kudlacz et. al., 2008, Eur J. Pharmacol 582(1-3): 154-161).
In one assay approach, TF-1 human erythroleukemia cells obtained from the American Type Culture Collection (ATCC; Manassas, Va.) were used to measure JAK1-dependent STAT6 phosphorylation downstream of IL-13 stimulation. Prior to use in the assays, TF-1 cells were starved of GM-CSF overnight in OptiMEM medium (Life Technologies, Grand Island, N.Y.) supplemented with 0.5% charcoal/dextran stripped fetal bovine serum (FBS), 0.1 mM non-essential amino acids (NEAA), and 1 mM sodium pyruvate. The assays were run in 384-well plates in serum-free OptiMEM medium using 300,000 cells per well. In a second assay approach, BEAS-2B human bronchial epithelial cells obtained from ATCC were plated at 100,000 cells per well of a 96-well plate one day prior to the experiment. The BEAS-2B assay was run in complete growth medium (bronchial epithelial basal medium plus bulletkit; Lonza; Basel, Switzerland).
Test compounds were serially diluted 1:2 in DMSO and then diluted 1:50 in medium just before use. Diluted compounds were added to the cells, for a final DMSO concentration of 0.2%, and incubated for 30 m (for the TF-1 assay) or 1 hr (for the BEAS-2B assay) at 37° C. Then, cells were stimulated with human recombinant cytokine at their respective EC90 concentrations, as previously determined for each individual lot. Cells were stimulated with […] (R&D Systems, Minneapolis, Minn.) for 15 m/at 37° C. The TF-1 cell reactions were stopped by the direct addition of 10× lysis buffer (Cell Signaling Technologies, Danvers, Mass.), whereas the BEAS-2B cell incubations were halted by the removal of medium and addition of 1× lysis buffer. The resultant samples were frozen in the plates at −80° C. Compound mediated inhibition of STAT6 phosphorylation was measured in the cell lysates using MesoScale Discovery (MSD) technology (Gaithersburg, Md.). EC50 values were determined as the concentration of compound required for 50% inhibition of STAT phosphorylation relative to that measured for the DMSO control.

[3] = biological target: isolated recombinant JAK2 kinase domain (Homo sapiens, UniProt O60674); test: JAK enzyme assay (Caliper LabChip), JAK2 kinase domain; conditions: ATP 25 μM, 0.2 nM JAK2, Morrison tight binding model
Chain of isolated recombinant JAK2 kinase domain (O60674 849-1124 limits assumed): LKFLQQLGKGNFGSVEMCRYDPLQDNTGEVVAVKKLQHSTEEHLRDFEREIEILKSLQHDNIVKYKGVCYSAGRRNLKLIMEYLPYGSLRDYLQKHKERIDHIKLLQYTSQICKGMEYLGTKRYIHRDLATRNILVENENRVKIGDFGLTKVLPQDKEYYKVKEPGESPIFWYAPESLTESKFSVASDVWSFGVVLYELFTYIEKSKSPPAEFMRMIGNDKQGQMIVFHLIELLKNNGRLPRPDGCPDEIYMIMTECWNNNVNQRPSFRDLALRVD

Chain of isolated recombinant JAK1 kinase domain (P23458 875-1153 limits assumed): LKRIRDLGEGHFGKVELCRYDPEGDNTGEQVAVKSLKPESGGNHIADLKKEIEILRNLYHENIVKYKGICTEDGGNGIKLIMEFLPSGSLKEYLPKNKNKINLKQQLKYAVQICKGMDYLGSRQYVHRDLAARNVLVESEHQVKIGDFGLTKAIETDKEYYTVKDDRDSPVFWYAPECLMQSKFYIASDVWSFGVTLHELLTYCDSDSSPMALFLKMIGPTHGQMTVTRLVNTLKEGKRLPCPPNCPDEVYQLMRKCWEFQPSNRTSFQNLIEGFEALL

| Structure (SMILES) | Ki [1] [nM] | IC50 ([2]; Homo sapiens, BEAS-2B, 1 h) [nM] | Ki [3] [nM] | IC50 [2] [nM] |
| --- | --- | --- | --- | --- |
| CC[C@H](O)Cn1cc(NC(=O)c2cnn3cccnc23)c(-c2cc(SC)ccc2OC(F)F)n1 (racemic) [Example 41, N-[3-[2-(difluoromethoxy)-5-methylsulfanyl-phenyl]-1-[rac-(2S)-2-hydroxybutyl]pyrazol-4-yl]pyrazolo[1,5-a]pyrimidine-3-carboxamide] | 0.35 | 13 | 0.25 | – |
| CN1CCCC(Sc2ccc(OC(F)F)c(-c3n[nH]cc3NC(=O)c3cnn4cccnc34)c2)C1 (single isomer, unassigned) [Example 31, N-[3-[2-(difluoromethoxy)-5-[(1-methyl-3-piperidyl)sulfanyl]phenyl]-1H-pyrazol-4-yl]pyrazolo[1,5-a]pyrimidine-3-carboxamide] | 9.73 | – | 3.47 | – |
| O=C(Nc1c[nH]nc1-c1cc(SC2CCCNC2)ccc1OC(F)F)c1cnn2cccnc12 (single isomer, unassigned) [Example 36, N-[3-[2-(difluoromethoxy)-5-(3-piperidylsulfanyl)phenyl]-1H-pyrazol-4-yl]pyrazolo[1,5-a]pyrimidine-3-carboxamide] | 91.5 | – | 51.7 | > 1000 |
| O=C(Nc1c[nH]nc1-c1cc(SC2CCCNC2)ccc1OC(F)F)c1cnn2cccnc12 (single isomer, unassigned) [Example 37, N-[3-[2-(difluoromethoxy)-5-(3-piperidylsulfanyl)phenyl]-1H-pyrazol-4-yl]pyrazolo[1,5-a]pyrimidine-3-carboxamide] | 1.16 | – | 0.57 | 222 |
| CN1CCCC(Sc2ccc(OC(F)F)c(-c3n[nH]cc3NC(=O)c3cnn4cccnc34)c2)C1 (single isomer, unassigned) [Example 38, N-[3-[2-(difluoromethoxy)-5-[(1-methyl-3-piperidyl)sulfanyl]phenyl]-1H-pyrazol-4-yl]pyrazolo[1,5-a]pyrimidine-3-carboxamide] | 2.93 | 56 | 1.38 | – |
| O=C(Nc1cn(C2CN(C3CC(O)C3)C2)nc1-c1cc(SC2COC2)ccc1OC(F)F)c1cnn2cccnc12 (single isomer, unassigned) [Example 39, N-[3-[2-(difluoromethoxy)-5-(oxetan-3-ylsulfanyl)phenyl]-1-[1-(3-hydroxycyclobutyl)azetidin-3-yl]pyrazol-4-yl]pyrazolo[1,5-a]pyrimidine-3-carboxamide] | 1.44 | 35 | 1.18 | – |
| O=C(Nc1cn(C2CN(C3CC(O)C3)C2)nc1-c1cc(SC2COC2)ccc1OC(F)F)c1cnn2cccnc12 (single isomer, unassigned) [Example 40, N-[3-[2-(difluoromethoxy)-5-(oxetan-3-ylsulfanyl)phenyl]-1-[1-(3-hydroxycyclobutyl)azetidin-3-yl]pyrazol-4-yl]pyrazolo[1,5-a]pyrimidine-3-carboxamide] | 1.18 | – | 1.02 | 45 |
| O=C(Nc1c[nH]nc1-c1cc(SC2CCOC2)ccc1OC(F)F)c1cnn2cccnc12 (centres unmarked) [Example 8, N-[3-[2-(difluoromethoxy)-5-tetrahydrofuran-3-ylsulfanyl-phenyl]-1H-pyrazol-4-yl]pyrazolo[1,5-a]pyrimidine-3-carboxamide] | 0.45 | 19 | – | – |
| Cn1cc(NC(=O)c2cnn3cccnc23)c(-c2cc(SC3COC3)ccc2OC(F)F)n1 [Example 15, N-[3-[2-(difluoromethoxy)-5-(oxetan-3-ylsulfanyl)phenyl]-1-methyl-pyrazol-4-yl]pyrazolo[1,5-a]pyrimidine-3-carboxamide] | – | 14 | 0.13 | – |
| CSc1ccc(OC(F)F)c(-c2nn(C3CCOCC3)cc2NC(=O)c2cnn3cccnc23)c1 [Example 16, N-[3-[2-(difluoromethoxy)-5-methylsulfanyl-phenyl]-1-tetrahydropyran-4-yl-pyrazol-4-yl]pyrazolo[1,5-a]pyrimidine-3-carboxamide] | – | 31 | 0.91 | – |
